# Data from the supplement of paper PMC10307832.
# Legend:
# Test in all cases: relative viability (nuclei count vs DMSO), 5 days (fraction); higher = more cells survive
# 17-AAG + Navitoclax = compound: C=CCNC1=C2C[C@@H](C)C[C@H](OC)[C@H](O)[C@@H](C)/C=C(\C)[C@H](OC(N)=O)[C@@H](OC)/C=C\C=C(/C)C(=O)NC(=CC1=O)C2=O [17-AAG] + CC1(C)CCC(c2ccc(Cl)cc2)=C(CN2CCN(c3ccc(C(=O)NS(=O)(=O)c4ccc(N[C@H](CCN5CCOCC5)CSc5ccccc5)c(S(=O)(=O)C(F)(F)F)c4)cc3)CC2)C1 [Navitoclax] (partner 0.5 µM)
# In short: (§1)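 Dosing by pin tool came one day after lung cancer cell lines were seeded in 1536-well plates, using either one drug or a fixed anchor-drug dose plus five library-drug doses (not always all listed) in √10 steps. After 5 days, nuclei were counted on 4× images. Relative viability is treated-well nuclei count divided by vehicle-well nuclei count, and values are medians of duplicate plates.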
# 17-AAG + Crizotinib = compound: C=CCNC1=C2C[C@@H](C)C[C@H](OC)[C@H](O)[C@@H](C)/C=C(\C)[C@H](OC(N)=O)[C@@H](OC)/C=C\C=C(/C)C(=O)NC(=CC1=O)C2=O [17-AAG] + C[C@@H](Oc1cc(-c2cnn(C3CCNCC3)c2)cnc1N)c1c(Cl)ccc(F)c1Cl [Crizotinib] (partner 1 µM)
# In short: as §1
# 17-AAG + Dasatinib = compound: C=CCNC1=C2C[C@@H](C)C[C@H](OC)[C@H](O)[C@@H](C)/C=C(\C)[C@H](OC(N)=O)[C@@H](OC)/C=C\C=C(/C)C(=O)NC(=CC1=O)C2=O [17-AAG] + Cc1nc(Nc2ncc(C(=O)Nc3c(C)cccc3Cl)s2)cc(N2CCN(CCO)CC2)n1 [Dasatinib] (partner 0.075 µM)
# In short: as §1
# 17-AAG + Vorinostat = compound: C=CCNC1=C2C[C@@H](C)C[C@H](OC)[C@H](O)[C@@H](C)/C=C(\C)[C@H](OC(N)=O)[C@@H](OC)/C=C\C=C(/C)C(=O)NC(=CC1=O)C2=O [17-AAG] + O=C(CCCCCCC(=O)Nc1ccccc1)NO [Vorinostat] (partner 1 µM)
# In short: as §1
Cell Line,relative viability (17-AAG + Navitoclax; first compound 0.00128 µM),relative viability (17-AAG + Navitoclax; first compound 0.004048 µM),relative viability (17-AAG + Navitoclax; first compound 0.0128 µM),relative viability (17-AAG + Navitoclax; first compound 0.04048 µM),relative viability (17-AAG + Navitoclax; first compound 0.128 µM),relative viability (17-AAG + Crizotinib; first compound 0.00128 µM),relative viability (17-AAG + Crizotinib; first compound 0.004048 µM),relative viability (17-AAG + Crizotinib; first compound 0.0128 µM),relative viability (17-AAG + Crizotinib; first compound 0.04048 µM),relative viability (17-AAG + Crizotinib; first compound 0.128 µM),relative viability (17-AAG + Dasatinib; first compound 0.00128 µM),relative viability (17-AAG + Dasatinib; first compound 0.004048 µM),relative viability (17-AAG + Dasatinib; first compound 0.0128 µM),relative viability (17-AAG + Dasatinib; first compound 0.04048 µM),relative viability (17-AAG + Dasatinib; first compound 0.128 µM),relative viability (17-AAG + Vorinostat; first compound 0.00128 µM),relative viability (17-AAG + Vorinostat; first compound 0.004048 µM),relative viability (17-AAG + Vorinostat; first compound 0.0128 µM),relative viability (17-AAG + Vorinostat; first compound 0.04048 µM),relative viability (17-AAG + Vorinostat; first compound 0.128 µM)
NCI-H2228,0.893,0.486,0.146,0.168,0.112,0.528,0.245,0.176,0.174,0.141,0.46,0.119,0.0679,0.089,0.0837,0.691,0.588,0.168,0.167,0.12
NCI-H838,1.15,1.12,1.07,0.165,0.166,0.748,0.729,0.259,0.118,0.112,0.291,0.269,0.203,0.186,0.2,0.759,0.779,0.213,0.168,0.169
NCI-H596,1.02,0.91,0.908,0.834,0.518,0.95,0.834,1.03,0.986,0.542,0.587,0.524,0.579,0.587,0.238,0.654,0.582,0.692,0.576,0.323
NCI-H727,0.426,0.455,0.214,0.206,0.226,0.968,0.74,0.586,0.191,0.188,0.378,0.376,0.326,0.231,0.214,1.36,1.05,1.23,1.32,0.511
LK-2,1.11,0.97,0.619,0.285,0.171,0.212,0.249,0.357,0.232,0.176,0.285,0.396,0.224,0.157,0.116,0.323,0.445,0.178,0.174,0.236
NCI-H1993,0.904,0.933,0.529,0.564,0.441,0.932,0.969,0.899,0.537,0.403,0.548,0.607,0.344,0.387,0.344,0.83,0.73,0.472,0.201,0.273
PC-14,1.04,1.02,1.02,0.118,0.0935,0.944,0.855,0.732,0.176,0.124,0.179,0.0725,0.0375,0.0586,0.0476,0.683,0.464,0.0532,0.081,0.056
NCI-H1437,1.11,0.939,0.936,0.162,0.132,0.976,0.806,0.378,0.126,0.0903,0.39,0.447,0.226,0.143,0.0854,0.83,0.77,0.731,0.328,0.235
NCI-H2170,0.649,0.578,0.548,0.251,0.167,1.29,1.19,0.959,0.588,0.203,0.623,0.663,0.275,0.123,0.111,0.837,0.827,0.336,0.169,0.143
NCI-H460,0.986,1.08,0.0303,0.0146,0.0215,0.685,0.521,0.0433,0.0161,0.013,0.518,0.462,0.0434,0.0267,0.019,0.733,0.41,0.0303,0.0238,0.0231
SW 1573,0.704,0.955,0.74,0.142,0.0734,0.764,0.872,0.687,0.167,0.106,0.699,0.461,0.135,0.136,0.0753,0.782,1.01,0.241,0.128,0.0675
BEN,0.069,0.0609,0.0634,0.052,0.0666,0.896,0.821,0.929,0.739,0.237,0.354,0.376,0.469,0.298,0.232,0.673,0.586,0.664,0.667,0.464
LC-2-ad,0.525,0.565,0.393,0.234,0.111,0.452,0.448,0.527,0.278,0.171,0.546,0.418,0.18,0.198,0.12,0.701,0.719,0.732,0.318,0.182
